Reference: ChEMBL document CHEMBL1201862, “PubChem BioAssay data set” (2004)
Calls of active or inactive are those of the source. Cut-off read from the data, not from the text of the source, for most assays here: actives have a measured IC50 and inactives only a lower limit.

Legend:
Type in all cases: functional
Caspase-3 = biological target: T1, Caspase-3 (Homo sapiens, UniProt P42574);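 note: Dose-response selectivity test against caspase-3 for candidate inhibitors of sentrin-specific proteases (SENPs)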
T1 sequence (P42574 whole entry): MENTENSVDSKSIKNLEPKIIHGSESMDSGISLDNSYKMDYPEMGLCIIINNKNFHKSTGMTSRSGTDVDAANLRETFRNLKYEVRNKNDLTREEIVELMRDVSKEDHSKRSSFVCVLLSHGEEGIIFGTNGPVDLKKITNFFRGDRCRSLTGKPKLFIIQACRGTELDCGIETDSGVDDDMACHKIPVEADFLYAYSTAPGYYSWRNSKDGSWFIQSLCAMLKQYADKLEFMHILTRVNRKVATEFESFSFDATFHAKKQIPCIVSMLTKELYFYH

[1] = biological target: T2, Sentrin-specific protease 7 (Homo sapiens, UniProt Q9BQF6);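 note: Luminescence-based dose-response confirmation of ultra-high-throughput screening hits, measuring inhibition of SENP7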
T2 sequence (Q9BQF6 whole entry): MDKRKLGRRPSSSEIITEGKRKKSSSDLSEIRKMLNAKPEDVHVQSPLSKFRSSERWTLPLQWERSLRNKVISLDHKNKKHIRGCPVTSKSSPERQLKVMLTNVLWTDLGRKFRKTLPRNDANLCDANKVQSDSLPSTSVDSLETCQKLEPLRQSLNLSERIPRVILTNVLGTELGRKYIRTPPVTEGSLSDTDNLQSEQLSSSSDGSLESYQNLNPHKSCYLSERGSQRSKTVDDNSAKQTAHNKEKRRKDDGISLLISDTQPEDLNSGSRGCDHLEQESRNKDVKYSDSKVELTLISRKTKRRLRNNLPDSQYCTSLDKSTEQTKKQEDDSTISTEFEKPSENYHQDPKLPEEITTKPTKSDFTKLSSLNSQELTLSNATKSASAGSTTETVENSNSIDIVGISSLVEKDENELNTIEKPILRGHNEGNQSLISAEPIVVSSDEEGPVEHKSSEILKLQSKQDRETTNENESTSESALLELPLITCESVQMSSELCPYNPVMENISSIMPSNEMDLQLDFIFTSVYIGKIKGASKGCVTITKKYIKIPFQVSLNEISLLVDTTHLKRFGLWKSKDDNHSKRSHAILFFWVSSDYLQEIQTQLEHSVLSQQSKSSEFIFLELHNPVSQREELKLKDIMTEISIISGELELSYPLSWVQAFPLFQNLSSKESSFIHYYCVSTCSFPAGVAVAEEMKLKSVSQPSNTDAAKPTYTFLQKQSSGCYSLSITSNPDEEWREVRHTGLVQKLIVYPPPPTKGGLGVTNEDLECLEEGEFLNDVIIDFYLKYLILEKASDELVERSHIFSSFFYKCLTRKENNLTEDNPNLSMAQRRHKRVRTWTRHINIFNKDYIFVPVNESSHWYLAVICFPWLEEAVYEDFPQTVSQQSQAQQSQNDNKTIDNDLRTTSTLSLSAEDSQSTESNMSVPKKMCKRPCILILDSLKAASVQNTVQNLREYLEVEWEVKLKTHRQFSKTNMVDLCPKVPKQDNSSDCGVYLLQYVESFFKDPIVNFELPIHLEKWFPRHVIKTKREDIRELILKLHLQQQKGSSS

[2] = biological target: T3, Sentrin-specific protease 6 (Homo sapiens, UniProt Q9GZR1);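 note: Luminescence-based dose-response confirmatory assay of SENP6 inhibition, following up an ultra-high-throughput screen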
T3 sequence (Q9GZR1 whole entry): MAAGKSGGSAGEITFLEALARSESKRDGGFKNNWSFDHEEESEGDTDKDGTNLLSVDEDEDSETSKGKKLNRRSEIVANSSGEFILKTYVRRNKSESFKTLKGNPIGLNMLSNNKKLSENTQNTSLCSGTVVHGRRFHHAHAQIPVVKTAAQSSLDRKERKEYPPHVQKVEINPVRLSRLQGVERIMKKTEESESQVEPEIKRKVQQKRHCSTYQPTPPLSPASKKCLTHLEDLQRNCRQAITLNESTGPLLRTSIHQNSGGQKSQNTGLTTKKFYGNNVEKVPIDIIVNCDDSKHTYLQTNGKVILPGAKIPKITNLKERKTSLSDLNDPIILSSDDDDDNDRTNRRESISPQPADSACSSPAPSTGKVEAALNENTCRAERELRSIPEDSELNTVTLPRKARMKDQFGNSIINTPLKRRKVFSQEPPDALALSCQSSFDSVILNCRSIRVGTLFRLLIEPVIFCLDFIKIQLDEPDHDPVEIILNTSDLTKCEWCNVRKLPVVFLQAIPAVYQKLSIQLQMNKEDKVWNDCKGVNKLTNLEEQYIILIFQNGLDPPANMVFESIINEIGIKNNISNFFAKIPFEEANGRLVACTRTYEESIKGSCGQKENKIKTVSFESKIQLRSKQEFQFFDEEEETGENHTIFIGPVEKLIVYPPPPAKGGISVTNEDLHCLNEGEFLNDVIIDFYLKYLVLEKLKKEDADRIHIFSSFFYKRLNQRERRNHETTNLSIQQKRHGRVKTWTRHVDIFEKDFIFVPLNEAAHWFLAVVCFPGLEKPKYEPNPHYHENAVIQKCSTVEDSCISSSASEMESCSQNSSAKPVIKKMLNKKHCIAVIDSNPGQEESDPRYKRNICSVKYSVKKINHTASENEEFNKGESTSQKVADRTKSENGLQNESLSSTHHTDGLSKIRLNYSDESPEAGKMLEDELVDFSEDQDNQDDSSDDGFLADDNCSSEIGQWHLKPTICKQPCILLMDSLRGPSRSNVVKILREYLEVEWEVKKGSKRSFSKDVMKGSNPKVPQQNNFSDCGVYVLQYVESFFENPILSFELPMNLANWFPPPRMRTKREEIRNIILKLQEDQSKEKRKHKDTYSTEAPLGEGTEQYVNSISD

[3] = control 3'UTR Renilla luciferase suppression, dose response, counter-screen for Shn3 inhibitor project, cell-based, Clone20-Shn3RL, cherry-picked (AID 624133)

## Nc1ccc(N2CCCCC2)c2nonc12
Caspase-3
  IC50: 36.9 µM (active)
[1]
  IC50: 17.1 µM (active)
[2]
  IC50: 9.43 µM (active)

## COc1ccc(NC(=O)/C(Cl)=C(/Cl)[S+]([O-])Cc2ccccc2)cn1 (configuration not stated)
[3]
  AC50: < 0.26 µM (active)

## Cc1ccc(S(=O)(=O)/N=C2\C=C(Nc3cccc(C(=O)O)c3)C(=O)c3ccccc32)c(C)c1
Caspase-3
  IC50: 11.2 µM (active)
[1]
  IC50: 3.3 µM (active)
[2]
  IC50: 0.819 µM (active)
